The record followed here is patent US20220142914A1, “SUSPENSION FORMULATIONS OF HIGH LOAD DISPERSIONS” (Austin Research Labs Corp., priority 2018, published 2022).

This experiment in a line: Endotoxin (LPS) adsorption capacity and efficiency of sorbents. It is filed as binding. To be noted: 96,528 ± 9,726 EU used, about 38-39.5 mg sorbent, n=6.

On to Polymycin B, -sulfate [PMB], for which the “Adsorption Capacity (EU/mg) ± SD” value is 1,746 ± 265 EU/mg; the “Adsorption Efficiency, E (%) ± SD” value stood at 69.66 ± 10.58%; the “LPS Conc. Post Incubation (EU/ml) ± SD” value is 760 ± 265 EU/ml; the “Log10 Reduction ± SD” value was 0.538 ± 0.142.
